Several values for one entry are separate records, joined by “and”; a condition that tells them apart may be missing. Equal entries are not always repeated.
Test system: NCI-H196 complex spheroids with HUVEC/MSC, growth % T/C
Assay: Anticancer human tumor NCI-H196 cell line growth inhibition [Asc];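 note: spheroids exposed to compound for 7 days before measurement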;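 for viability, T/C: 100% = DMSO vehicle control wells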
Conditions: for viability, T/C: stronger effect = lower value
In short: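 Tumor cells were grown as complex spheroids with human endothelial cells (HUVEC) and human mesenchymal stem cells as stroma. Agents were tested alone and in combination, in half-log steps down from the clinical Cmax, or from 10 microM where Cmax was unknown.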

[1] = curve of first compound, second compound 0.03 µM
[2] = curve of first compound, second compound 0.0949 µM
[3] = curve of first compound, second compound 0.3 µM
[4] = curve of first compound, second compound 0.949 µM
[5] = curve of first compound, second compound 3 µM

C=C(F)C(=O)N1CCN(c2nc(OCC3CCCN3C)nc3c2CCN(c2cccc4cccc(Cl)c24)C3)CC1CC#N (stereo not given) + CCN1C(C(=O)NC23CCC(C(=O)O)(CC2)CC3)C(c2cccc(Cl)c2F)C2(C(=O)Nc3cc(Cl)ccc32)C12CCCCC2
IC50 [1]: > 10000 nM
IC50 [2]: > 10000 nM
IC50 [3]: > 10000 nM
IC50 [4]: > 10000 nM
IC50 [5]: > 10000 nM
viability, T/C (second compound 0.03 µM, first compound 0.0316 µM): 124%
viability, T/C (second compound 0.03 µM, first compound 0.1 µM): 106%
viability, T/C (second compound 0.03 µM, first compound 0.316 µM): 108%
viability, T/C (second compound 0.03 µM, first compound 1 µM): 102%
viability, T/C (second compound 0.03 µM, first compound 3.16 µM): 108%
viability, T/C (second compound 0.03 µM, first compound 10 µM): 93.2%
viability, T/C (second compound 0.0949 µM, first compound 0.0316 µM): 112%
viability, T/C (second compound 0.0949 µM, first compound 0.1 µM): 107%
viability, T/C (second compound 0.0949 µM, first compound 0.316 µM): 113%
viability, T/C (second compound 0.0949 µM, first compound 1 µM): 101%
viability, T/C (second compound 0.0949 µM, first compound 3.16 µM): 109%
viability, T/C (second compound 0.0949 µM, first compound 10 µM): 96.2%
viability, T/C (second compound 0.3 µM, first compound 0.0316 µM): 108%
viability, T/C (second compound 0.3 µM, first compound 0.1 µM): 114%
viability, T/C (second compound 0.3 µM, first compound 0.316 µM): 103%
viability, T/C (second compound 0.3 µM, first compound 1 µM): 115%
viability, T/C (second compound 0.3 µM, first compound 3.16 µM): 110%
viability, T/C (second compound 0.3 µM, first compound 10 µM): 98.1%
viability, T/C (second compound 0.949 µM, first compound 0.0316 µM): 115%
viability, T/C (second compound 0.949 µM, first compound 0.1 µM): 119%
viability, T/C (second compound 0.949 µM, first compound 0.316 µM): 117%
viability, T/C (second compound 0.949 µM, first compound 1 µM): 106%
viability, T/C (second compound 0.949 µM, first compound 3.16 µM): 114%
viability, T/C (second compound 0.949 µM, first compound 10 µM): 105%
viability, T/C (second compound 3 µM, first compound 0.0316 µM): 135%
viability, T/C (second compound 3 µM, first compound 0.1 µM): 119%
viability, T/C (second compound 3 µM, first compound 0.316 µM): 117%
viability, T/C (second compound 3 µM, first compound 1 µM): 120%
viability, T/C (second compound 3 µM, first compound 3.16 µM): 112%
viability, T/C (second compound 3 µM, first compound 10 µM): 114%

NC1CCC(NC2CC2c2ccccc2)CC1 (stereo not given) + Cc1c(S(C)(=O)=O)c(-c2cc(F)cc(N3CCN(c4ccc(NS(=O)(=O)c5ccc(NC(CCN6CCC(C(=O)OCCCP(=O)(O)O)CC6)CSc6ccccc6)c(S(=O)(=O)C(F)(F)F)c5)cc4)CC3)c2)c(-c2ccc(Cl)cc2)n1C(C)C
IC50 (curve of first compound, second compound 0.1 µM): > 100 nM
IC50 (curve of first compound, second compound 0.316 µM): > 100 nM
IC50 (curve of first compound, second compound 1 µM): > 100 nM
IC50 (curve of first compound, second compound 3.16 µM): > 100 nM
IC50 (curve of first compound, second compound 10 µM): > 100 nM
viability, T/C (second compound 0.1 µM, first compound 0.000316 µM): 91.7%
viability, T/C (second compound 0.1 µM, first compound 0.001 µM): 100%
viability, T/C (second compound 0.1 µM, first compound 0.00316 µM): 84.5%
viability, T/C (second compound 0.1 µM, first compound 0.01 µM): 93.7%
viability, T/C (second compound 0.1 µM, first compound 0.0316 µM): 93.1%
viability, T/C (second compound 0.1 µM, first compound 0.1 µM): 85.7%
viability, T/C (second compound 0.316 µM, first compound 0.000316 µM): 91.8%
viability, T/C (second compound 0.316 µM, first compound 0.001 µM): 88.7%
viability, T/C (second compound 0.316 µM, first compound 0.00316 µM): 97%
viability, T/C (second compound 0.316 µM, first compound 0.01 µM): 96.7%
viability, T/C (second compound 0.316 µM, first compound 0.0316 µM): 97.5%
viability, T/C (second compound 0.316 µM, first compound 0.1 µM): 91.6%
viability, T/C (second compound 1 µM, first compound 0.000316 µM): 89.1%
viability, T/C (second compound 1 µM, first compound 0.001 µM): 88.7%
viability, T/C (second compound 1 µM, first compound 0.00316 µM): 89.8%
viability, T/C (second compound 1 µM, first compound 0.01 µM): 85.1%
viability, T/C (second compound 1 µM, first compound 0.0316 µM): 87.5%
viability, T/C (second compound 1 µM, first compound 0.1 µM): 80%
viability, T/C (second compound 3.16 µM, first compound 0.000316 µM): 79.4%
viability, T/C (second compound 3.16 µM, first compound 0.001 µM): 86.6%
viability, T/C (second compound 3.16 µM, first compound 0.00316 µM): 79.2%
viability, T/C (second compound 3.16 µM, first compound 0.01 µM): 75.9%
viability, T/C (second compound 3.16 µM, first compound 0.0316 µM): 78%
viability, T/C (second compound 3.16 µM, first compound 0.1 µM): 76%
viability, T/C (second compound 10 µM, first compound 0.000316 µM): 69.7%
viability, T/C (second compound 10 µM, first compound 0.001 µM): 73.5%
viability, T/C (second compound 10 µM, first compound 0.00316 µM): 69.3%
viability, T/C (second compound 10 µM, first compound 0.01 µM): 74%
viability, T/C (second compound 10 µM, first compound 0.0316 µM): 76.6%
viability, T/C (second compound 10 µM, first compound 0.1 µM): 71.1%

Cc1nc(N2CCC3(CC2)COC(C)C3N)c(CO)nc1Sc1ccnc(N)c1Cl (stereo not given) + CCN1C(C(=O)NC23CCC(C(=O)O)(CC2)CC3)C(c2cccc(Cl)c2F)C2(C(=O)Nc3cc(Cl)ccc32)C12CCCCC2
IC50 [1]: 1540 nM
IC50 [2]: 1900 nM
IC50 [3]: 1600 nM
IC50 [4]: 1730 nM
IC50 [5]: 1570 nM
viability, T/C (second compound 0.03 µM, first compound 0.00949 µM): 102%
viability, T/C (second compound 0.03 µM, first compound 0.03 µM): 103%
viability, T/C (second compound 0.03 µM, first compound 0.0949 µM): 115%
viability, T/C (second compound 0.03 µM, first compound 0.3 µM): 102%
viability, T/C (second compound 0.03 µM, first compound 0.949 µM): 64.6%
viability, T/C (second compound 0.03 µM, first compound 3 µM): 30.2%
viability, T/C (second compound 0.0949 µM, first compound 0.00949 µM): 108%
viability, T/C (second compound 0.0949 µM, first compound 0.03 µM): 113%
viability, T/C (second compound 0.0949 µM, first compound 0.0949 µM): 109%
viability, T/C (second compound 0.0949 µM, first compound 0.3 µM): 95.5%
viability, T/C (second compound 0.0949 µM, first compound 0.949 µM): 74.1%
viability, T/C (second compound 0.0949 µM, first compound 3 µM): 34.5%
viability, T/C (second compound 0.3 µM, first compound 0.00949 µM): 118%
viability, T/C (second compound 0.3 µM, first compound 0.03 µM): 124%
viability, T/C (second compound 0.3 µM, first compound 0.0949 µM): 119%
viability, T/C (second compound 0.3 µM, first compound 0.3 µM): 99.8%
viability, T/C (second compound 0.3 µM, first compound 0.949 µM): 69.1%
viability, T/C (second compound 0.3 µM, first compound 3 µM): 27.9%
viability, T/C (second compound 0.949 µM, first compound 0.00949 µM): 124%
viability, T/C (second compound 0.949 µM, first compound 0.03 µM): 137%
viability, T/C (second compound 0.949 µM, first compound 0.0949 µM): 119%
viability, T/C (second compound 0.949 µM, first compound 0.3 µM): 107%
viability, T/C (second compound 0.949 µM, first compound 0.949 µM): 72.1%
viability, T/C (second compound 0.949 µM, first compound 3 µM): 29.9%
viability, T/C (second compound 3 µM, first compound 0.00949 µM): 136%
viability, T/C (second compound 3 µM, first compound 0.03 µM): 130%
viability, T/C (second compound 3 µM, first compound 0.0949 µM): 121%
viability, T/C (second compound 3 µM, first compound 0.3 µM): 106%
viability, T/C (second compound 3 µM, first compound 0.949 µM): 67.4%
viability, T/C (second compound 3 µM, first compound 3 µM): 26.5%

NC1CCC(NC2CC2c2ccccc2)CC1 (stereo not given)
viability, T/C (compound 0.000316 µM): 103% and 108% and 100%
viability, T/C (compound 0.001 µM): 93.8% and 106% and 108%
viability, T/C (compound 0.00316 µM): 108% (2×) and 97.2%
viability, T/C (compound 0.01 µM): 93% and 98.4% and 103%
viability, T/C (compound 0.0316 µM): 99.4% and 105% and 114%
viability, T/C (compound 0.1 µM): 92.6% and 112% and 92.1%
IC50 (curve of compound): > 100 nM

Cc1c(S(C)(=O)=O)c(-c2cc(F)cc(N3CCN(c4ccc(NS(=O)(=O)c5ccc(NC(CCN6CCC(C(=O)OCCCP(=O)(O)O)CC6)CSc6ccccc6)c(S(=O)(=O)C(F)(F)F)c5)cc4)CC3)c2)c(-c2ccc(Cl)cc2)n1C(C)C (stereo not given)
viability, T/C (compound 0.1 µM): 94.5% [middle of 14 runs]
viability, T/C (compound 0.316 µM): 92.9% [middle of 14 runs]
viability, T/C (compound 1 µM): 91.4% [middle of 14 runs]
viability, T/C (compound 3.16 µM): 82.2% [middle of 14 runs]
viability, T/C (compound 10 µM): 75.3% [middle of 14 runs]
IC50 (compound alone, run of 09/27/2022): > 10000 nM

Cn1ncnc1[C@H]1c2n[nH]c(=O)c3cc(F)cc(c23)N[C@@H]1c1ccc(F)cc1
viability, T/C (compound 0.000316 µM): 97.9% and 107% and 106%
viability, T/C (compound 0.001 µM): 104% and 97.1% and 99.2%
viability, T/C (compound 0.00316 µM): 99.5% and 100% and 104%
viability, T/C (compound 0.01 µM): 104% and 102% and 98%
viability, T/C (compound 0.0316 µM): 100% (2×) and 96.9%
viability, T/C (compound 0.1 µM): 98.8% and 96% and 88.3%
IC50 (curve of compound): > 100 nM
